Experimental data as given in patent US20250346592A1 (Celgene Corporation, priority 2022, published 2025).

Legend:
hPAD4 enzyme [1] = biological target: T1, hPAD4 enzyme (Homo sapiens (Human), UniProt Q9UM07); assay: RFMS2 assay (RapidFire mass spectrometry, TSTGGRQGSHH peptide substrate); format: biochemical; conditions: 35 nM recombinant human PAD4, 500 μM TSTGGRQGSHH peptide, 30 minutes at room temperature; read-out: RFMS 2 IC50
How it was run: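 Recombinant human PAD4 (35 nM) with 500 μM TSTGGRQGSHH peptide in HEPES pH 7.4, 200 mM NaCl, 2 mM CaCl2, 5 mM DTT, 1.2% DMSO, 30 min at room temperature; 3-fold compound series, top 20 μM. Quenched with formic acid; substrate and citrullinated product quantified by RapidFire MRM mass spectrometry for IC50.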

hPAD4 enzyme [2] = biological target: T1, hPAD4 enzyme; assay: RFMS1 assay (RapidFire mass spectrometry, BAEE substrate); format: biochemical; conditions: 5 nM hPAD4, 250 μM BAEE, 30 min preincubation at 37° C., 90 min reaction; read-out: RFMS 1 IC50
How it was run: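 hPAD4 (5 nM) preincubated 30 min at 37° C. with compound, then 250 μM BAEE for 90 min at 37° C. in pH 7.5 HEPES buffer with 50 μM calcium, 1 mM DTT, 5 μM TPEN. TCA quench, phenyl glyoxal derivatisation; citrulline product measured by RapidFire MS, normalised to internal standard; IC50 values.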

T1 sequence (Q9UM07 whole entry): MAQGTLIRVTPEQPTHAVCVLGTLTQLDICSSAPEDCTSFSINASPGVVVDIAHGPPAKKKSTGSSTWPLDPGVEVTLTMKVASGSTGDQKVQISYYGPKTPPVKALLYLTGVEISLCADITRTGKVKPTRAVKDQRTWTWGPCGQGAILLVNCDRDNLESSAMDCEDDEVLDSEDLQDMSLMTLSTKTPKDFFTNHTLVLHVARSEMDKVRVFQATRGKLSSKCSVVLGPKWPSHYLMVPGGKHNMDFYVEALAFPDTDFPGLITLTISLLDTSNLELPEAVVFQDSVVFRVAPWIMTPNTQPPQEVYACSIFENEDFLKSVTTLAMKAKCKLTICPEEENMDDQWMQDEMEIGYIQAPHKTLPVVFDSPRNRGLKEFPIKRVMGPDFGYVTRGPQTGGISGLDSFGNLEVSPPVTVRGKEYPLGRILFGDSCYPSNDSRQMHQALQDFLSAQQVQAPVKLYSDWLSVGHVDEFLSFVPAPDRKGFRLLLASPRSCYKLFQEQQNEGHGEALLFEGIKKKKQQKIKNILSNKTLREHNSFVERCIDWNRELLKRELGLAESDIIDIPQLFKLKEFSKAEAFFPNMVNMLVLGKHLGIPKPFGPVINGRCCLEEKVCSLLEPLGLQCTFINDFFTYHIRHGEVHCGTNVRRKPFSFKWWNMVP

Structure (SMILES)	IC50 (hPAD4 enzyme [1]) [nM]	IC50 (hPAD4 enzyme [2]) [nM]
COc1cccc2cc(-c3nc4cc5c(cc4n3C)CCN(C[C@H]3COCCN3)C5=O)n(CC3CC3)c12 [Example 231, (S)-2-(1-(cyclopropylmethyl)-7-methoxy-1H-indol-2-yl)-1-methyl-6-(morpholin-3-ylmethyl)-1,6,7,8-tetrahydro-5H-imidazo[4,5-g]isoquinolin-5-one]	501 to 1000	101 to 500
COc1cccc2cc(-c3nc4cc5c(cc4n3C)CCN(C[C@H]3COCCN3)C5=O)n(Cc3ncco3)c12 [Example 232, (S)-2-(7-methoxy-1-(oxazol-2-ylmethyl)-1H-indol-2-yl)-1-methyl-6-(morpholin-3-ylmethyl)-1,6,7,8-tetrahydro-5H-imidazo[4,5-g]isoquinolin-5-one]	101 to 500	101 to 500
Cn1c(-c2cc3cccc(OCCn4cnnc4)c3n2CC2CC2)nc2cc3c(cc21)CCN(C[C@H]1COCCN1)C3=O [Example 234, 2-[1-(cyclopropylmethyl)-7-[2-(1,2,4-triazol-4-yl)ethoxy]indol-2-yl]-1-methyl-6-[[(3S)-morpholin-3-yl]methyl]-7,8-dihydroimidazo[4,5-g]isoquinolin-5-one]	501 to 1000	11 to 100
Cn1c(-c2cc3ccccc3n2CC2CC2)nc2cc3c(c(F)c21)CCN(C[C@H](N)CF)C3=O [Example 236, (S)-6-(2-amino-3-fluoropropyl)-2-(1-(cyclopropylmethyl)-1H-indol-2-yl)-9-fluoro-1-methyl-1,6,7,8-tetrahydro-5H-imidazo[4,5-g]isoquinolin-5-one]	501 to 1000	101 to 500
C[C@@H](N)CN1CCc2c(cc3nc(-c4cc5ccccc5n4CC4CC4)n(C)c3c2F)C1=O [Example 237, (R)-6-(2-aminopropyl)-2-(1-(cyclopropylmethyl)-1H-indol-2-yl)-9-fluoro-1-methyl-1,6,7,8-tetrahydro-5H-imidazo[4,5-g]isoquinolin-5-one]	101 to 500	101 to 500
COc1cccc2cc(-c3nc4cc5c(c(F)c4n3C)CCN(C[C@H](N)CF)C5=O)n(CC3CC3)c12 [Example 238, (S)-6-(2-amino-3-fluoropropyl)-2-(1-(cyclopropylmethyl)-7-methoxy-1H-indol-2-yl)-9-fluoro-1-methyl-1,6,7,8-tetrahydro-5H-imidazo[4,5-g]isoquinolin-5-one]	101 to 500	11 to 100

The remaining lines, values ahead:

IC50 (hPAD4 enzyme [1]) [nM]	IC50 (hPAD4 enzyme [2]) [nM]	Structure (SMILES)
101 to 500	≤ 10	C[C@H](Cn1ccnc1)Oc1cccc2cc(-c3nc4cc5c(cc4n3C)CCN(C[C@H](N)CF)C5=O)n(CC3CC3)c12 [Example 223, 2-(7-(((R)-1-(1H-imidazol-1-yl)propan-2-yl)oxy)-1-(cyclopropylmethyl)-1H-indol-2-yl)-6-((S)-2-amino-3-fluoropropyl)-1-methyl-1,6,7,8-tetrahydro-5H-imidazo[4,5-g]isoquinolin-5-one]
11 to 100	≤ 10	Cn1c(-c2cc3cccc(/C=C/Cn4ccnc4)c3n2CC2CC2)nc2cc3c(cc21)CCN(C[C@H](N)CF)C3=O [Example 227, (S,E)-2-(7-(3-(1H-imidazol-1-yl)prop-1-en-1-yl)-1-(cyclopropylmethyl)-1H-indol-2-yl)-6-(2-amino-3-fluoropropyl)-1-methyl-1,6,7,8-tetrahydro-5H-imidazo[4,5-g]isoquinolin-5-one]
101 to 500	≤ 10	Cn1c(-c2cc3cccc(CCCn4ccnc4)c3n2CC2CC2)nc2cc3c(cc21)CCN(C[C@H](N)CF)C3=O [Example 228, (S)-2-(7-(3-(1H-imidazol-1-yl)propyl)-1-(cyclopropylmethyl)-1H-indol-2-yl)-6-(2-amino-3-fluoropropyl)-1-methyl-1,6,7,8-tetrahydro-5H-imidazo[4,5-g]isoquinolin-5-one]
101 to 500	501 to 1000	CN[C@H](C)CN1CCc2cc3c(cc2C1=O)nc(-c1cc2cccc(OCC4CNC(=O)C4)c2n1CC1CC1)n3C (stereo partly drawn) [Example 229, 2-(1-(cyclopropylmethyl)-7-((5-oxopyrrolidin-3-yl)methoxy)-1H-indol-2-yl)-1-methyl-6-((R)-2-(methylamino)propyl)-1,6,7,8-tetrahydro-5H-imidazo[4,5-g]isoquinolin-5-one]
